# Entries after “also recorded” stand apart in the source; their conditions may differ. Positions of bridges follow the written chain, without caps; N, C: chain ends. Non-standard residues stand in square brackets, D forms with d. No end group written: not given here.
# Experiments:
# [1] = test system: primary bladder cancer cells from patients; experiment: Whole cell bead binding assay, primary bladder cancer cells from patients; design: species or system human; details: beads coated with PLZ4; fresh bladder cancer specimens
# Description: (§1) Four bladder cancer cell lines including 5637 (HTB-9), SCaBER, TCCSUP (HTB-5), and T24 (HTB-4) were purchased from the American Type Culture Collection (Manassas, Va.). The isolation, characterization and maintenance of normal urothelial cells was previously described in detail (Bagai, et al., J Biol Chem, (2002) 277: 23828-23837). Normal peripheral blood mononuclear cells were prepared by using the Ficoll-Paque gradient method from peripheral blood of healthy donors. Bladder cancer tissue obtained from cystectomy was cut into pieces, digested with collagenase at 37° C. for 1-2 hours per the manufacturer's protocol, and filtered through a 40-μm strainer to make single cell suspension. Tumor cells were then isolated with Ficoll-Paque gradient method (800 g, 30 min at 4° C.). Informed consent was obtained from each patient or healthy donor before specimens were collected.
# The beads were washed extensively with double-distilled water and phosphate-buffered saline (PBS) before screening. […]
# The cell surface molecules on established cell lines in culture may not be the same as those molecules on primary bladder cancer cells. It was assessed if PLZ4 could bind to bladder cancer cells from patients. […]
# [2] = test system: bladder lymphoid hyperplasia specimen; experiment: Binding to canine bladder lymphoid hyperplasia specimen; details: data not shown
# 5637 cells = experiment: Flow cytometry binding affinity on 5637 cells; design: species or system human; details: PLZ4-biotin with streptavidin-PE
# Description: All of the following steps were done on ice. 5×10^5 5637 cells were washed 3 times with 1 ml cold PBS (pH 7.4)-BSA (1%), re-suspended with 300 μl cold BSA (5%)-PBS (pH 7.4), and then incubated for 1 hour on ice. The cells were centrifuged and suspended with 50 μl PLZ4-biotin solution at 800, 400, 200, 100, 50, 25, 10, 5, 2.5, 1, 0.1, and 0 μM, and incubated for 1 hour on ice. Cells treated without PLZ4-biotin was considered as a control. After washing 6 times with 1 ml cold PBS-Tween-20 (0.05%) buffer, cells were re-suspended with 50 μl streptavidin (SA)-PE (1:500 in PBS-BSA, 1%) (1 mg/ml, Invitrogen, Carlsbad, Calif.), incubated for 1 hour on ice, washed with PBS (pH 7.4) 3 times, re-suspended with 500 μl PBS (pH 7.4), and analyzed using a Coulter Epics XL-MCL flow cytometer (Beckman Coulter, Inc.). The experiment was repeated three times. The mean value was expressed in FIG. 4.
# Next, it was determined if fluorescence cell sorting could be used to identify bladder cancer cells. PLZ4 peptide conjugated to biotin through hydrophilic linkers was synthesized. Biotinylated PLZ4 was then incubated with streptavidin-PE to generate PLZ4-PE conjugate through the strong binding of biotin and streptavidin. […] The binding affinity (Kd) is around 30 μM.
# [3] = test system: K9TCC, K9TCC-PU-In and K9TCC-PU-Nk cells; experiment: WST-8 cell proliferation assay; type: cell-based, canine; details: 48 hours, various concentrations, compared with PBS control
# Description: FIG. 8A-B. Binding affinity and biological effects of PLZ4 against canine TCC cell lines. A. Binding affinity of PLZ4 against K9TCC-PU and K9TCC-PU-In. Twenty thousands of K9TCC-PU and K9TCC-PU-In were seeded in 96 well plates. After culture for 24 hours, cells were fixed and incubated with different concentrations of PLZ4-biotin for 1.5 hours following avidin-HRP for another 1 hour. Cells treated with avidin-HRP only were served as background control. The color was developed using TMB substrate and read by ELISA readers. The experiment was performed in triplicates and repeated for 3 times. The mean value of the 3 experiments were shown. B. Biological effects of PLZ4 on canine TCC cell lines. Ten thousand K9TCC-PU-In and K9TCC-PU cells were seeded in the 96 well plates and treated with increasing concentrations of PLZ4 or PBS for 2 days. The cell proliferation assay was assessed by WST-8 assay per manufacturer's protocol. Cells treated with PBS were used as 100% control. Each group was performed in triplicate, repeated for 3 times. Mean values at each concentration are presented.
# Ligand binding on the cell surface molecules may initiate cell signaling and exert biological effects on cells. The effect of PLZ4 on cell viability and proliferation was determined, as it may have potential clinical applications. […]
# [4] = test system: cancer cells from canine bladder TCC clinical specimen; experiment: Binding to canine bladder TCC clinical specimen cells
# [5] = test system: Human bladder cancer cell line 5637; experiment: Whole cell binding assay of Example 2, 5637 positive control; details: PLZ4 beads, 10^6 cells/ml
# Description: (§2) This experiment was repeated 3 times for cell lines. […] 5637 human bladder cancer cell line; b. […] The average diameter of the beads is 90 μm. […] This experiment was repeated for 3 times. (200×)
# (§3) To determine the binding of PLZ4 to canine TCC cell lines, whole cell binding assay was performed. PLZ4 was synthesized on TentaGel S NH2 resin beads (Rapp Polymere Gmbh, Germany) (Pegram, et al., J Clin Oncol (1998) 16:2659-2671), and incubated with single suspensions of five different canine carcinoma cell lines including K9TCC-PU, K9TCC-PU-AxA, K9TCC-PU-In, K9TCC-PU-AxC, and K9TCC-PU-Nk (kindly provided by Deborah Knapp at Purdue University, West Lafayette, Ind., USA) at 10^6 cells/ml. The negative control was normal urothelial cells obtained from dogs that were euthanized due to non-bladder-related disorders. Human bladder cancer cell line, 5637 were served as the positive control. If PLZ4 bound to cells in suspension, then the bead surface was covered with cells. Over 95% of the bead surface was covered with 5637 and K9TCC cells (FIG. 7A-a and b, respectively).
# [6] = test system: peripheral blood mononuclear cells (PBMC); experiment: Whole cell bead binding assay, PBMC; design: species or system human; details: peptide on beads
# Description: as §1
# The beads were washed extensively with double-distilled water and phosphate-buffered saline (PBS) before screening. Bladder cancer cells and normal urothelial cells were detached from culture dishes with trypsin/EDTA or a Detach kit (PromoCell, Heidelberg, Germany), washed with their corresponding culture medium, resuspended at 10^6 cells/ml and incubated with OBOC beads in Petri dishes in a humidified CO2 incubator at 37° C. with shaking (60 rpm). […]
# K9TCC cells = experiment: Whole cell binding assay of Example 2, canine TCC cells; details: PLZ4 beads, 10^6 cells/ml
# Description: as §2, §3
substance,measurement,setting,value
"cQDGRMGFc ([dC]QDGRMGF[dC]; disulfide 1-9 (inferred)) [PLZ4, bladder cancer-specific ligand peptide]",binding to primary bladder cancer cells from patients,[1],could bind to cells from all 5 fresh bladder cancer specimens
same,binding to a bladder lymphoid hyperplasia specimen,[2],not to a bladder lymphoid hyperplasia specimen
same,Kd,5637 cells,~30 µM
same,cell proliferation/viability,[3],no significant changes in cell proliferation/viability
same,binding to primary canine bladder cancer cells from a clinical specimen,[4],could bind to primary canine bladder cancer cells; also recorded: could bind to cancer cells from one canine bladder TCC clinical specimen
same,bead surface covered with cells,[5],Over 95%
same,binding to peripheral blood mononuclear cells,[6],did not bind
same,bead surface covered with cells,K9TCC cells,Over 95%

# From patent US10335365B2, “Bladder cancer specific ligand peptides” (The Regents of the University of California, priority 2009, dated 2019)
